Reference: ChEMBL document CHEMBL1201862, “PubChem BioAssay data set” (2004)
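Results reflect a 48-hour exposure of cells in 96-well plates to compound at five concentrations. Abbreviation: GI50, concentration required for 50% inhibition of growth.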 Activity calls are given as the source filed them. Rule as the data show it: active = GI50 up to about 1.1 µM and inactive = higher.

Columns and labels:
Assay in all cases: NCI-60 cell line screen, 48 h
KM-20L2 = tested on: KM-20L2
A498 = tested on: A498
SK-MEL-5 = tested on: SK-MEL-5
DMS-273 = tested on: DMS-273
SK-MEL-2 = tested on: SK-MEL-2
COLO 205 = tested on: COLO 205
DLD-1 = tested on: DLD-1
DMS-114 = tested on: DMS-114
SK-OV-3 = tested on: SK-OV-3
HT-29 = tested on: HT-29
RPMI-8226 = tested on: RPMI-8226
RXF 393 = tested on: RXF 393
KM12 = tested on: KM12
SNB-78 = tested on: SNB-78
OVCAR-5 = tested on: OVCAR-5
SNB-19 = tested on: SNB-19
OVCAR-4 = tested on: OVCAR-4
786-0 = tested on: 786-0
HOP-62 = tested on: HOP-62
A549 = tested on: A549
XF498 = tested on: XF498
NCI-H460 = tested on: NCI-H460
SNB-75 = tested on: SNB-75
HCC 2998 = tested on: HCC 2998
HCT-15 = tested on: HCT-15
LXFL 529 = tested on: LXFL 529
LOX IMVI = tested on: LOX IMVI
SW-620 = tested on: SW-620
K562 = tested on: K562
SF-295 = tested on: SF-295
SN12C = tested on: SN12C
M19-MEL = tested on: M19-MEL
MOLT-4 = tested on: MOLT-4
IGROV-1 = tested on: IGROV-1
EKVX = tested on: EKVX
OVCAR-3 = tested on: OVCAR-3
UACC-62 = tested on: UACC-62
NCI-H23 = tested on: NCI-H23
Malme-3M = tested on: Malme-3M
U-251 = tested on: U-251
SF-539 = tested on: SF-539
ACHN = tested on: ACHN
CCRF-CEM = tested on: CCRF-CEM
M14 = tested on: M14
CAKI-1 = tested on: CAKI-1
UO-31 = tested on: UO-31
SF-268 = tested on: SF-268
UACC-257 = tested on: UACC-257
SK-MEL-28 = tested on: SK-MEL-28
OVCAR-8 = tested on: OVCAR-8
TK-10 = tested on: TK-10
HOP-92 = tested on: HOP-92
Hs-578T = tested on: Hs-578T
MDA-MB-435 = tested on: MDA-MB-435
PC-3 = tested on: PC-3
SR = tested on: SR
BT-549 = tested on: BT-549
NCI/ADR-RES = tested on: NCI/ADR-RES
DU-145 = tested on: DU-145
NCI-H522 = tested on: NCI-H522
T47D = tested on: T47D
HL-60 = tested on: HL-60
NCI-H226 = tested on: NCI-H226
MDA-MB-231 = tested on: MDA-MB-231
MDA-N = tested on: MDA-N

CCP(C)(C)=O
GI50 (KM-20L2): > 100000 nM (inactive) | GI50 (A498): > 100000 nM (inactive) | GI50 (SK-MEL-5): > 100000 nM (inactive) | GI50 (DMS-273): > 100000 nM (inactive) | GI50 (SK-MEL-2): > 100000 nM (inactive) | GI50 (COLO 205): > 100000 nM (inactive) | GI50 (DLD-1): > 100000 nM (inactive) | GI50 (DMS-114): > 100000 nM (inactive) | GI50 (SK-OV-3): > 100000 nM (inactive) | GI50 (HT-29): > 100000 nM (inactive) | GI50 (RPMI-8226): > 100000 nM (inactive) | GI50 (RXF 393): > 100000 nM (inactive) | GI50 (KM12): > 100000 nM (inactive) | GI50 (SNB-78): > 100000 nM (inactive) | GI50 (OVCAR-5): > 100000 nM (inactive) | GI50 (SNB-19): > 100000 nM (inactive) | GI50 (OVCAR-4): > 100000 nM (inactive) | GI50 (786-0): > 100000 nM (inactive) | GI50 (HOP-62): > 100000 nM (inactive) | GI50 (A549): > 100000 nM (inactive) | GI50 (XF498): > 100000 nM (inactive) | GI50 (NCI-H460): > 100000 nM (inactive) | GI50 (SNB-75): > 100000 nM (inactive) | GI50 (HCC 2998): > 100000 nM (inactive) | GI50 (HCT-15): > 100000 nM | GI50 (LXFL 529): > 100000 nM (inactive) | GI50 (LOX IMVI): > 100000 nM (inactive) | GI50 (SW-620): > 100000 nM (inactive) | GI50 (K562): > 100000 nM (inactive) | GI50 (SF-295): > 100000 nM (inactive) | GI50 (SN12C): > 100000 nM (inactive) | GI50 (M19-MEL): > 100000 nM (inactive) | GI50 (MOLT-4): > 100000 nM (inactive) | GI50 (IGROV-1): > 100000 nM (inactive) | GI50 (EKVX): > 100000 nM (inactive) | GI50 (OVCAR-3): > 100000 nM (inactive) | GI50 (UACC-62): > 100000 nM (inactive) | GI50 (NCI-H23): > 100000 nM (inactive) | GI50 (Malme-3M): > 100000 nM (inactive) | GI50 (U-251): > 100000 nM (inactive) | GI50 (SF-539): > 100000 nM (inactive) | GI50 (ACHN): > 100000 nM (inactive) | GI50 (CCRF-CEM): > 100000 nM (inactive) | GI50 (M14): > 100000 nM (inactive) | GI50 (CAKI-1): > 100000 nM (inactive) | GI50 (UO-31): > 10000 nM (inactive) | GI50 (SF-268): > 100000 nM (inactive) | GI50 (UACC-257): > 100000 nM (inactive) | GI50 (SK-MEL-28): > 100000 nM (inactive) | GI50 (OVCAR-8): > 100000 nM (inactive) | GI50 (TK-10): > 100000 nM (inactive)

COC(=O)C12OCC34C(CC5C(C)=CC(=O)C(O)C5(C)C3C(O)C1O)OC(=O)C(OC(=O)CC(C)C)C24 (stereo not drawn)
GI50 (HOP-92): 3.24 nM (active) | GI50 (KM-20L2): 2.88 nM (active) | GI50 (A498): 2 nM (active) | GI50 (SK-MEL-5): 0.624 nM (active) | GI50 (DMS-273): 0.401 nM (active) | GI50 (SK-MEL-2): 2.81 nM (active) | GI50 (COLO 205): 2.37 nM (active) | GI50 (DLD-1): 1.49 nM (active) | GI50 (DMS-114): 0.659 nM (active) | GI50 (Hs-578T): 0.164 nM (active) | GI50 (MDA-MB-435): 1.03 nM (active) | GI50 (SK-OV-3): 3.1 nM (active) | GI50 (HT-29): 0.973 nM (active) | GI50 (RPMI-8226): 0.371 nM (active) | GI50 (RXF 393): 1.68 nM (active) | GI50 (KM12): 1.66 nM (active) | GI50 (SNB-78): 3.46 nM (active) | GI50 (OVCAR-5): 3.25 nM (active) | GI50 (SNB-19): 1.4 nM (active) | GI50 (PC-3): 0.871 nM (active) | GI50 (SR): 0.327 nM (active) | GI50 (BT-549): 0.463 nM (active) | GI50 (786-0): 46.8 nM (active) | GI50 (HOP-62): 2.22 nM (active) | GI50 (A549): 1.3 nM (active) | GI50 (XF498): 1.16 nM (active) | GI50 (NCI-H460): 0.46 nM (active) | GI50 (NCI/ADR-RES): 2.89 nM (active) | GI50 (SNB-75): 2.16 nM (active) | GI50 (DU-145): 0.83 nM (active) | GI50 (NCI-H522): 0.352 nM (active) | GI50 (HCC 2998): 0.803 nM (active) | GI50 (HCT-15): 2.88 nM | GI50 (T47D): 1.46 nM (active) | GI50 (LXFL 529): < 25.5 nM (active) | GI50 (LOX IMVI): 0.548 nM (active) | GI50 (SW-620): 2 nM (active) | GI50 (SF-295): 1.58 nM (active) | GI50 (SN12C): 3.66 nM (active) | GI50 (M19-MEL): 1.34 nM (active) | GI50 (IGROV-1): 0.564 nM (active) | GI50 (EKVX): 3.13 nM (active) | GI50 (OVCAR-3): 0.906 nM (active) | GI50 (UACC-62): 2.23 nM (active) | GI50 (NCI-H23): 0.778 nM (active) | GI50 (Malme-3M): 1.26 nM (active) | GI50 (HL-60): 0.208 nM (active) | GI50 (U-251): 1.16 nM (active) | GI50 (SF-539): 0.64 nM (active) | GI50 (ACHN): < 37.1 nM (active) | GI50 (NCI-H226): 1.09 nM (active) | GI50 (CCRF-CEM): 0.486 nM (active) | GI50 (M14): < 38.1 nM (active) | GI50 (MDA-MB-231): 3.69 nM (active) | GI50 (MDA-N): 1.42 nM (active) | GI50 (CAKI-1): 5 nM (active) | GI50 (UO-31): 7.38 nM (active) | GI50 (SF-268): 2.17 nM (active) | GI50 (UACC-257): 2.84 nM (active) | GI50 (SK-MEL-28): 1.34 nM (active) | GI50 (OVCAR-8): 2.06 nM (active) | GI50 (TK-10): 44.4 nM (active)
